Results: patent US3937612A, “Dialkylphosphonoacetylurea compounds and processes for preparation and use for flameproofing” (priority 1974, dated 1976)

Assay: Water solubility (stated in words)
Type: physicochemical
Description: While stirring, 682 gm (5 mol) of chloroacetylurea were added portionwise to 831 gm (5 mol) of triethyl phosphite at a temperature of 135°C to 150°C. Each time, the addition of the next portion was delayed until the violent gas evolution had abated. After the last portion of chloracetylurea had been added, the stirring was continued at 150°Cuntil the evolution of gas was terminated. Small quantities of a volatile substance distilled off when the reaction mixture was heated on the water bath under the vacuum generated by an oil pump. The reaction mixture solidified upon cooling. […] The yield of crude product was 1120 gm (94% of the theory).

Which water solubility does the source give for `CCOP(=O)(CC(=O)NC(N)=O)OCC` [diethylphosphonoacetylurea, Diethylphosphonoacetylurea] here?
Its water solubility is “water-soluble”.
